From publication PMC6112376, “Comprehensive Analyses and Prioritization of Tox21 10K Chemicals Affecting Mitochondrial Function by in-Depth Mechanistic Studies” (Environmental Health Perspectives, 2018)
Read-outs that look alike come from different tables or passages of the source.

Columns and labels:
HepG2 cells [1] = conditions: cited from earlier work
rat primary hepatocytes [2] = tested on: rat primary hepatocytes
rat primary hepatocytes [3] = experiment: MMP assay in rat primary hepatocytes; conditions: for IC50: Rattus norvegicus, Hepatocyte, read-out: MMP assays IC50 (µM) Rat Hepatocytes
HepG2 cells [4] = experiment: cells; conditions: Homo sapiens; for IC50: HepG2, read-out: MMP assays IC50 (µM) HepG2; for Emax: HepG2, read-out: MMP assays efficacy (%) HepG2
[5] = read-out: MMP assays IC50 (µM) qHTS-HepG2
[6] = read-out: MMP assays IC50 (µM), qHTS-HepG2

Compound | MMP assays efficacy (%) qHTS-HepG2 (HepG2 cells [1]) | IC50 (HepG2 cells [1]; [5]) | MMP assays efficacy (%) Rat Hepatocytes (rat primary hepatocytes [2]) | IC50 (rat primary hepatocytes [3]) | IC50 (HepG2 cells [4]) | Emax (HepG2 cells [4]) | IC50 (HepG2 cells [1]; [6]) | MMP assays IC50 (µM) Rat Hepatocytes (rat primary hepatocytes [3])
O=[N+]([O-])c1cc(C2CCCCC2)c(O)c([N+](=O)[O-])c1 [Dinex] | -88±10% | 0.28 ± 0.34 µM | -96±4% | 1.4 ± 0.6 µM | 0.71 µM | 86% | – | –
CN(C)c1ccc(N)cc1 [N,N-Dimethyl-p-phenylenediamine] | -100±15% | – | -69±29% | 21.7 ± 15.7 µM | 7.08 µM | 109% | 9.1 ± 0.59 µM | –
Cc1cc(O)c2c3c4c(cc(O)c13)C(C)(C)C(=O)c1c(O)cc(O)c(c1-4)C2=O [Geliomycin] | -120±11% | – | -101±18% | 0.55 ± 0.31 µM | 0.19 µM | 94% | 0.52 ± 0.04 µM | –
COP(=S)(OC)Oc1c(Cl)cc(C)cc1Cl [Tolclofos-methyl] | -72±22% | – | -74±66% | 31.2 ± 19 µM | 39.8 µM | 105% | 30.6 ± 5.8 µM | –
CCCCCCCCSC(=O)Oc1cc(Cl)nnc1-c1ccccc1 [Pyridate] | -97±17% | – | -59±19% | 50.5 ± 8.18 µM | 35.5 µM | 44% | 33.1 ± 4.58 µM | –
NC(=O)Oc1ccc(Cc2ccccc2)cc1 [Diphenan] | -115±14% | 22.3 ± 4.67 µM | -51±6% | 84.2 ± 39.6 µM | 19.9 µM | 112% | – | –
Nc1ccc(/N=N/c2ccc(N)cc2)cc1 [4,4'-Diaminoazobenzene] | -86±5% | 10.5 ± 3.59 µM | -50±40% | 26.6 ± 12.5 µM | 5.62 µM | 87% | – | –
Oc1cccc2ccccc12 [Compound 1-Naphthol] | -104±5% | 31 ± 5.96 µM | inactive | – | 31.6 µM | 107% | – | inactive
COP(=S)(OC)Oc1cc(Cl)c(Cl)cc1Cl [Fenchlorphos] | -97±9% | 13.6 ± 2.52 µM | -96±29% | 20.6 ± 1.68 µM | 6.15 µM | 99% | – | –
Oc1cc(Cl)c(Cl)c(Cl)c1 [3,4,5-Trichlorophenol] | – | 3.8 ± 1.74 µM | -100±4% | 33.8 ± 17.2 µM | 5.01 µM | 96% | – | –
Nc1ccc(N)c2ccccc12 [1,4-Naphthalenediamine] | -88±2% | 0.2 ± 0.08 µM | -44±17% | 22.7 ± 8.75 µM | 2 µM | 109% | – | –
OC(c1ccc(Cl)cc1)(c1cncnc1)c1ccccc1Cl (stereo not shown) [Fenarimol] | -77±13% | 42.6 ± 21.9 µM | -81±45% | 33.5 ± 2.73 µM | 35.5 µM | 81% | – | –
CCC(C)c1cc([N+](=O)[O-])cc([N+](=O)[O-])c1OC(=O)OC(C)C (stereo not shown) [Dinobuton] | -105±4% | 4.33 ± 1.24 µM | -115±54% | 5.74 ± 4.21 µM | 7.94 µM | 101% | – | –
O=Nc1ccc(O)cc1 [Compound 4-Nitrosophenol] | -87±9% | 4.71 ± 2.31 µM | inactive | – | 15.8 µM | 61% | – | inactive
Oc1c(Br)c(Br)c(Br)c(Br)c1Br [Pentabromophenol] | -104±8% | – | -93±13% | 4.98 ± 2.48 µM | 7.94 µM | 106% | 3.46 ± 0.99 µM | –
O=C1C(I)=CC(=C(c2cc(I)c(O)c(I)c2)c2ccccc2C(=O)O)C=C1I [Iodophthalein] | -95±6% | – | -96±3% | 7.32 ± 0.6 µM | 4.35 µM | 98% | 5.31 ± 1.76 µM | –
S=C=Nc1ccccc1 [Phenyl isothiocyanate] | -103±16% | – | inactive | – | 35.5 µM | 134% | 43 ± 14.8 µM | inactive
ClC1=C(Cl)C2(Cl)C3C(Cl)C=CC3C1(Cl)C2(Cl)Cl (stereo not shown) [Heptachlor] | – | – | inactive | – | 31.6 µM | 87% | 39.4 ± 17.9 µM | inactive
O=C(CCc1ccc(O)cc1)c1c(O)cc(O)cc1O [Phloretin] | -107±12% | – | -74±26% | 10.6 ± 4.98 µM | 11.2 µM | 100% | 4.26 ± 1.22 µM | –
Oc1c(Cl)cc(Cl)c2cccnc12 [CHLOROXINE] | -75±22% | 10.6 ± 1.22 µM | inactive | – | 9.75 µM | 99% | – | inactive
Oc1ccc2ccccc2c1 [Compound 2-Naphthalenol] | -107±7% | 50.1 ± 16 µM | -56±17% | 42.2 ± 19.8 µM | 35.5 µM | 81% | – | –
CO/N=C(/C1=NOCCO1)c1ccccc1Oc1ncnc(Oc2ccccc2Cl)c1F [Fluoxastrobin] | -81±29% | – | -105±24% | 37.9 ± 19.3 µM | 11.2 µM | 72% | 45.8 ± 15 µM | –
Cc1cc(NC(=O)C2=C(O)c3ccccc3S(=O)(=O)N2C)no1 [Isoxicam] | -66±27% | – | -60±55% | 4.92 ± 0.8 µM | 2.75 µM | 38% | 5.18 ± 2.9 µM | –
CCCCOC(=O)c1ccc(O)cc1 [Butylparaben] | -109±15% | 19 µM | inactive | – | 35.5 µM | 124% | – | inactive
C[C@@]1(c2ccc(Oc3ccccc3)cc2)OC(=O)N(Nc2ccccc2)C1=O (racemic) [Famoxadone] | -104±6% | 4.19 ± 1.07 µM | -158±101% | 8.38 ± 6.71 µM | 4.47 µM | 107% | – | –
O=C(Nc1cccc(Cl)c1)OCC#CCCl [Barban] | -116±9% | 22.5 ± 4.1 µM | -68±37% | 36 ± 7.53 µM | 25.1 µM | 87% | – | –
O=[N+]([O-])c1ccc2c(c1)Cc1ccccc1-2 [Compound 2-Nitrofluorene] | -53±5% | 12.2 ± 0.86 µM | -57±0% | 38.1 ± 9.22 µM | 50.1 µM | 41% | – | –
CCCOC(=O)c1ccc(O)cc1 [Propylparaben] | -99±4% | – | inactive | – | 35.5 µM | 91% | 38.6 ± 1.67 µM | inactive
